Source: patent US20080119548A1, “Control Of Feeding Behavior By Changing Neuronal Energy Balance” (priority 2004, published 2008)

Experiments:
[1] = Changes in bodyweight 24 hr after i.c.v. injection; format: in vivo, mice; conditions: C75 10 μg i.c.v.
Text: (d) Changes in bodyweight 24 hr after i.c.v. injection of C75, AICAR or compound C (n=4-10). Mice were implanted with permanent stainless steel cannulae into the lateral ventricle of the brain 0.6 mm caudal to Bregma, 1.2 mm lateral to the midline, and sunk to a depth of 2.2 mm below the surface of the skull. Implanted mice were housed in individual cages and utilized for i.c.v. and i.p. injections as indicated. C75 dissolved in RPMI1640 (Gibco-BRL), AICAR (Toronto Research Chemicals Inc) or compound […], Inc.) in saline was injected i.c.v., such that desired dose could be administered in a volume of 2.5 μl, while control groups received vehicle only. Injections were done immediately preceding dark onset and food intake measurements were taken at 1 hr (0-1 hr interval), 3 hr (1-3 hr interval), and 24 hr (3-24 hr interval) after dark onset. […]. treatment groups were i.p. injected with 5 mg/kg bodyweight C75 dissolved in […] of glucose-free RPMI 1 hr before the dark onset, followed by 3 μg/2.5 μl saline i.c.v. AICAR immediately preceding the dark onset. Control groups received 200 μl of glucose free RPMI 1 hr before lights off and 2.5 μl of saline. Administration of i.p. compound C (10 or 30 mg/kg bodyweight) or C75 (10 mg/kg bodyweight) was followed by food intake measurement at the same times indicated.

[2] = tested on: hypothalamic AMPKα (α1 and α2); assay: Western blot of phosphorylated AMPKα in hypothalamus; format: in vivo, mice; conditions: for reduction of levels of pAMPKα (α1 and α2) in the hypothalamus vs vehicle: C75 i.c.v. (5 μg or 10 mg)
Method: (§1) Hypothalami were dissected using as landmarks the optic chiasm rostrally, and the mammillary bodies caudally to a depth of 2 mm. Dissected hypothalamic and liver tissue were immediately frozen in liquid nitrogen. Tissues were homogenized in 200 μl of lysis buffer (50 mM Tris-HCl, pH 7.5, 250 mM sucrose, 5 mM sodium pyrophosphate, 50 mM NaF, 1 mM EDTA, 1 mM EGTA, 1 mM DTT, 0.5 mM PMSF, 0.1 mM benzamidine, 50 μg/ml leupeptin, 50 μg/ml soybean trypsin inhibitor). SDS detergent was added to a final 0.2%, and lysates were boiled for 5 min. After the supernatant was harvested, protein concentration was determined by BCA kit (Bio Rad). Phosphorylation of AMPKα was determined on a 4-15% gradient SDS-polyacrylamide gel using anti-phospho-AMPKα (α1 and α2, Thr172) antibody (1:1000, Cell Signaling). Anti-AMPKαt antibody (α1 and α2, 1:1000, Cell Signaling) was used as a loading control.

[3] = tested on: primary hypothalamic neurons; assay: ATP measurement in primary hypothalamic neuron cultures; format: cell-based, Sprague-Dawley rats
Method: Hypothalami were dissected from E17 Sprague-Dawley rats (Harlan), and dissociated by trypsin (0.125%)-DNA (0.001%) solution and trituration as described by Landree, et al., J. Biol. Chem., 279, 3817-3827. Cells were plated at 6×10^4 on poly-D-lysine coated 96 well plates (Corning Inc.) in neurobasal medium supplemented with B27, 0.5 mM L-glutamine, 1% penicillin-streptomycin (Gibco-BRL). To limit nonneuronal cell proliferation, cells were treated with cytosine arabinoside furanoside (1 μM) on day 4 after plating and 6-8 days-old cells were assayed for ATP. Hypothalamic neurons were lysed in TE (100 mM Tris-HCl, pH 7.4, 4 mM DTA), and ATP levels were measured within the linear range using the ATP BioLuminescence Kit CLSII (Roche) by following the manufacture's recommendation. Data were analyzed by a Perkin-Elmer Victor^2 1420.

[4] = tested on: NPY mRNA; assay: In situ hybridization of NPY in the arcuate nucleus; format: in vivo; conditions: C75-treated (24 hr) mice
Method: Anti-sense DIG-labeled NPY riboprobe was generated from a plasmid containing the NPY gene (XM004941). […] For double fluorescent in situ hybridization, DIG-labeled riboprobe was generated from plasmid containing AMPKα2 gene (pEBGα2, a gift from L. A. Witters) for AMPKα2 (FITC) and biotin-labeled riboprobe was used for NPY (Texas Red). Sheep FITC-conjugated anti-DIG antibody (1:50, Roche) was incubated in TNB buffer (100 mM Tris-HCl pH 7.5, 150 mM NaCl, and 0.5% blocking reagent) for FITC detection. Streptavidin-Texas Red (1:50, Amersham Pharmacia), rabbit anti-Texas Red antibody (1:50, Molecular Probes), goat biotin-conjugated anti-rabbit IgG antibody (1:50, Santa Cruz Biotechnology) and streptavidin-Texas Red (1:30) were incubated serially in TNB buffer for Texas Red detection.
(§2) Images of in situ hybridization and immunohistochemistry were visualized using an Axiocam HRc digital camera (Carl Zeiss) and images were acquired using Improvision Openlab software, and quantified by NIH Image program (Macro).

[5] = tested on: pAMPKα; assay: Immunohistochemistry of pAMPKα in the arcuate nucleus; format: in vivo; conditions: C75-treated (24 hr) mice
Method: Free-floating sections were blocked in PBS containing 5% goat serum, 0.1% BSA, 0.05% Triton-X100, 1 mM NaF for 1 hr at room temperature and incubated with anti-phospho-AMPKα (α1 and α2) antibody (1:100) or anti-phospho-CREB antibody (1:500, Cell Signaling) in PBS containing 1% goat serum, 0.1% BSA, 0.05% Triton-X100, 1 mM NaF overnight at 4° C. Signal was visualized by Vectastain ABC kit (Vector).
as §2

[6] = tested on: liver AMPKα; assay: Western blot of phosphorylated AMPKα in liver; format: in vivo, mice; conditions: C75 i.p.
Method: as §1

[7] = tested on: lean, diet-induced obese (DIO), and genetically obese (ob/ob) mice; conditions: cited from earlier work

Structure (SMILES): C=C1C(=O)OC(CCCCCCCC)C1C(=O)O (stereo not shown) [C75]
- bodyweight [1]: reduction in body weight
- level of hypothalamic pAMPKα in fasted mice ([2]; 24 hr fasting, then C75 i.p. (10 mg/kg bodyweight), vs RPMI control): profoundly reduced
- levels of pAMPKα in the hypothalamus ([2]; C75 10 mg/kg body weight i.p., 30 min and 3 hr): significantly reduced
- reduction of levels of pAMPKα (α1 and α2) in the hypothalamus vs vehicle ([2]; 30 min): three
- reduction of levels of pAMPKα (α1 and α2) in the hypothalamus vs vehicle ([2]; 3 hr): six-fold
- hypothalamic pAMPKα level ([2]; i.p. C75 and i.c.v. saline, 30 min after i.c.v. injection): profound decrease
- neuronal ATP levels, % of control ([3]; 40 mg/ml C75, 30 min): 118 % of control
- neuronal ATP levels, % of control ([3]; 40 mg/ml C75, 2 hr): 128 % of control
- NPY mRNA expression in the arcuate nucleus, % of control [4]: 66 % of control
- pAMPKa-immunoreactivity in the arcuate nucleus, % of control [5]: 12 % of control
- pAMPKα levels in the liver ([6]; 30 min after administration): little effect
- pAMPKα levels in the liver ([6]; 3 hr): increased pAMPKα levels
- weight loss and anorexia [7]: profound weight loss and anorexia
